# Patent publication US11987588B2, “Modulators of the beta-3 adrenergic receptor useful for the treatment or prevention of heart failure and disorders related thereto” (Arena Pharmaceuticals, Inc., priority 2017, dated 2024)
# Target: Beta-3 Adrenergic Receptor (Homo sapiens (Human), UniProt P13945)
# Assay: Homogeneous Time-Resolved Fluorescence (HTRF) cAMP antagonist assay, IC50 determination
# Format: cell-based
# Details: CHO-K1 cells stably expressing recombinant receptor, isoproterenol at EC90
# Summary of the method: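 Antagonist mode: isoproterenol at its predetermined EC90 added after compound to recombinant CHO-K1 cells in IBMX-containing PBS, 1 h, room temperature. Compounds tested as 5-fold, 10-point dilutions, top final typically 10 or 100 μM. HTRF signal converted to cAMP via standard curve, giving IC50.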
# Beta-3 Adrenergic Receptor, sequence (P13945 whole entry, species assumed): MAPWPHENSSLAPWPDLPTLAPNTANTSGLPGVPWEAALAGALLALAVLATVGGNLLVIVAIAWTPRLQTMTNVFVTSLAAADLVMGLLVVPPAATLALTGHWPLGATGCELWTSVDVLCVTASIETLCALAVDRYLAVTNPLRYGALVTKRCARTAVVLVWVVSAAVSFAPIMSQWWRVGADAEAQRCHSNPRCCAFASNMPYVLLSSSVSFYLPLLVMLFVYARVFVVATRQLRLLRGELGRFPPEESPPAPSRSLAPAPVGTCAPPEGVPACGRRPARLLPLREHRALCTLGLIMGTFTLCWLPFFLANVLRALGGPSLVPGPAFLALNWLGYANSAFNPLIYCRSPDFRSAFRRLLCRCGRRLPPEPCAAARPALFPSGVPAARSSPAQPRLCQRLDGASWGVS
row,Compound,IC50 [nM]
1,"CN(C)S(=O)(=O)c1cccc(OC[C@@H](O)CNC2COC3(CCN(S(=O)(=O)c4cccc(-c5ccc(S(N)(=O)=O)cc5)c4)CC3)C2)c1 (stereo partly drawn) [Compound 274, 3′-(3-((S)-3-(3-(N,N-dimethylsulfamoyl)phenoxy)-2-hydroxypropylamino)-1-oxa-8-azaspiro[4.5]decan-8-ylsulfonyl)biphenyl-4-sulfonamide]",21.1
2,"CN(C)S(=O)(=O)c1cccc(OC[C@@H](O)CNC2COC3(CCN(S(=O)(=O)c4cccc(-c5ccc(N)nc5)c4)CC3)C2)c1 (stereo partly drawn) [Compound 275, 3-((2S)-3-(8-(3-(6-aminopyridin-3-yl)phenylsulfonyl)-1-oxa-8-azaspiro[4.5]decan-3-ylamino)-2-hydroxypropoxy)-N,N-dimethylbenzenesulfonamide]",21.3
3,"CN(C)S(=O)(=O)c1cccc(OC[C@@H](O)CNC2COC3(CCN(S(=O)(=O)c4cccc(-c5ccc(OCC#N)cc5)c4)CC3)C2)c1 (stereo partly drawn) [Compound 276, 3-((2S)-3-(8-(4′-(cyanomethoxy)biphenyl-3-ylsulfonyl)-1-oxa-8-azaspiro[4.5]decan-3-ylamino)-2-hydroxypropoxy)-N,N-dimethylbenzenesulfonamide]",200
4,"CN(C)S(=O)(=O)c1cccc(OC[C@@H](O)CNC2COC3(CCN(S(=O)(=O)c4cccc(-c5ccc(CC#N)cc5)c4)CC3)C2)c1 (stereo partly drawn) [Compound 277, 3-((2S)-3-(8-(4′-(cyanomethyl)biphenyl-3-ylsulfonyl)-1-oxa-8-azaspiro[4.5]decan-3-ylamino)-2-hydroxypropoxy)-N,N-dimethylbenzenesulfonamide]",46.7
5,"CNS(=O)(=O)c1cccc(OC[C@@H](O)CN[C@@H]2COC3(CCN(S(=O)(=O)c4ccc5c(c4)NC(=O)CO5)CC3)C2)c1 [Compound 278, 3-((S)-2-hydroxy-3-((S)-8-(3-oxo-3,4-dihydro-2H-benzo[b][1,4]oxazin-6-ylsulfonyl)-1-oxa-8-azaspiro[4.5]decan-3-ylamino)propoxy)-N-methylbenzenesulfonamide]",12.8
6,"CNS(=O)(=O)c1cccc(OC[C@@H](O)CN[C@H]2COC3(CCN(S(=O)(=O)c4ccc5c(c4)NC(=O)CO5)CC3)C2)c1 [Compound 279, 3-((S)-2-hydroxy-3-((R)-8-(3-oxo-3,4-dihydro-2H-benzo[b][1,4]oxazin-6-ylsulfonyl)-1-oxa-8-azaspiro[4.5]decan-3-ylamino)propoxy)-N-methylbenzenesulfonamide]",31.6
7,"CNS(=O)(=O)c1cccc(OC[C@@H](O)CN[C@@H]2COC3(CCN(S(=O)(=O)c4cnn(-c5ccccc5)c4C)CC3)C2)c1 [Compound 280, 3-((S)-2-hydroxy-3-((S)-8-(5-methyl-1-phenyl-1H-pyrazol-4-ylsulfonyl)-1-oxa-8-azaspiro[4.5]decan-3-ylamino)propoxy)-N-methylbenzenesulfonamide]",98
8,"CNS(=O)(=O)c1cccc(OC[C@@H](O)CN[C@H]2COC3(CCN(S(=O)(=O)c4cnn(-c5ccccc5)c4C)CC3)C2)c1 [Compound 281, 3-((S)-2-hydroxy-3-((R)-8-(5-methyl-1-phenyl-1H-pyrazol-4-ylsulfonyl)-1-oxa-8-azaspiro[4.5]decan-3-ylamino)propoxy)-N-methylbenzenesulfonamide]",10.7
9,"CCn1cc(-c2cccc(S(=O)(=O)N3CCC4(CC3)C[C@H](NC[C@H](O)COc3cccc(S(=O)(=O)NC)c3)CO4)c2)cn1 [Compound 282, 3-((S)-3-((S)-8-(3-(1-ethyl-1H-pyrazol-4-yl)phenylsulfonyl)-1-oxa-8-azaspiro[4.5]decan-3-ylamino)-2-hydroxypropoxy)-N-methylbenzenesulfonamide]",15.5
10,"CCn1cc(-c2cccc(S(=O)(=O)N3CCC4(CC3)C[C@@H](NC[C@H](O)COc3cccc(S(=O)(=O)NC)c3)CO4)c2)cn1 [Compound 283, 3-((S)-3-((R)-8-(3-(1-ethyl-1H-pyrazol-4-yl)phenylsulfonyl)-1-oxa-8-azaspiro[4.5]decan-3-ylamino)-2-hydroxypropoxy)-N-methylbenzenesulfonamide]",84.6
